From ChEMBL document CHEMBL1201862, “PubChem BioAssay data set” (2004) come the findings set out here.

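Step 1: Grow cells in 96-well plates. Step 2: Expose to compound for 48 hours at 5 concentrations. Step 3: Interpolate endpoints linearly; if unreached, use highest concentration. The concentration for 50% growth inhibition is given as GI50.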 Calls of active or inactive are those of the source. Cut-off read from the data, not from the text of the source: active = GI50 up to about 1.1 µM and inactive = higher. A value given as a limit tells only on which side of the number the result lay.

Some test systems named below: 786-0; A498; ACHN; HOP-92; IGROV-1; LOX IMVI; M14; MDA-MB-231; NCI-H226; NCI-H23; NCI-H460; NCI-H522; OVCAR-5; OVCAR-8; RXF 393; SF-268; SNB-75; SW-620; U-251; UACC-257.
Assay in all cases: NCI anticancer screen, dose series, 48 h

Consider `CC1=C(O)C(=O)C=C2C1=CC=C1[C@@]2(C)CC[C@@]2(C)C3C[C@@H](C)C(=O)[C@@H](O)[C@]3(C)CC[C@]12C` (stereo not given in full), for which the GI50 in the experiment on 786-0 is 0.946 µM (active); with A498 it was 6.32 µM (inactive); in the experiment with ACHN it was 1.7 µM (inactive); in the experiment on HOP-92, 2.03 µM (inactive); in the experiment on IGROV-1, 1.73 µM (inactive); in the experiment with LOX IMVI it was 1.5 µM (inactive). The GI50 with M14 is 1.64 µM (inactive); in the experiment on MDA-MB-231, 2 µM (inactive); in the experiment with NCI-H226 it was 4.44 µM (inactive); in the experiment with NCI-H23 it was 1.97 µM (inactive); with NCI-H460, 5.58 µM (inactive); in the experiment with NCI-H522 it was 1.05 µM (active). Besides, the GI50 in the experiment with OVCAR-5 is 4.23 µM (inactive); in the experiment with OVCAR-8, 2.39 µM (inactive); in the experiment on RXF 393, 1.9 µM (inactive); in the experiment with SF-268, 3.38 µM (inactive); in the experiment with SNB-75, 8.38 µM (inactive); with SW-620, 1.24 µM (inactive). Moreover, the results for the GI50 in the experiment with U-251 and with UACC-257 were 1.85 µM (inactive) and 2.83 µM (inactive), respectively.
As to `CN1CCN(Cc2nc3cccc4c3c([n+]2[O-])-c2ccccc2-4)CC1`, the GI50 with 786-0 is 14.4 µM (inactive); with A498 it was 15.8 µM (inactive); in the experiment on ACHN, 12.2 µM (inactive); in the experiment with HOP-92 it was 36 µM (inactive); in the experiment with IGROV-1, 32.5 µM (inactive); in the experiment on LOX IMVI, 16.7 µM (inactive). Moreover, the GI50 in the experiment on M14 is 23.2 µM (inactive); in the experiment on MDA-MB-231, 15.8 µM (inactive); in the experiment on NCI-H226 it was 26.8 µM (inactive); in the experiment on NCI-H23, 26.8 µM (inactive); in the experiment with NCI-H460, 17.8 µM (inactive); with NCI-H522, 14.3 µM (inactive). The GI50 was > 34.2 µM (inactive) in the experiment on OVCAR-5; 12.9 µM (inactive) in the experiment with OVCAR-8; 10.8 µM (inactive) in the experiment on RXF 393; 17.9 µM (inactive) in the experiment on SF-268; 33 µM (inactive) with SNB-75; 22.8 µM (inactive) with SW-620. In addition, the GI50 in the experiment on U-251 was 20 µM (inactive); with UACC-257, 24.4 µM (inactive).
As to `O=C(NO)c1cccc(OCc2ccc(Br)cc2)c1`, the GI50 in the experiment with 786-0 is 2.92 µM (inactive); with A498, 8.93 µM (inactive); in the experiment with ACHN, 3.03 µM (inactive); in the experiment with HOP-92 it was 7.8 µM (inactive); with IGROV-1, 3.35 µM (inactive); with LOX IMVI, 2.11 µM (inactive). The GI50 in the experiment with M14 was 2.79 µM (inactive); in the experiment with MDA-MB-231, 12.3 µM (inactive); with NCI-H226, 3.78 µM (inactive); with NCI-H23 it was 3.79 µM (inactive); with NCI-H460, 3.06 µM (inactive); in the experiment on NCI-H522, 1.41 µM (inactive). Also, the GI50 is 12.6 µM (inactive) in the experiment with OVCAR-5; 1.32 µM (inactive) with OVCAR-8; 3.52 µM (inactive) with RXF 393; 4.03 µM (inactive) with SF-268; 4.29 µM (inactive) in the experiment with SNB-75; 6.55 µM (inactive) in the experiment with SW-620. Moreover, the GI50 is 4.63 µM (inactive) in the experiment on U-251 and 10.5 µM (inactive) with UACC-257.
Consider `COc1ccc2[nH]c3c(C)c4ccnc(NCCCN(C)CCCNc5ccc6ncn7c8ccccc8c(=O)c5c67)c4c(C)c3c2c1`, for which the GI50 in the experiment with 786-0 was 0.0632 µM (active); in the experiment on A498, 1.11 µM (active); with ACHN it was 0.0598 µM (active); with HOP-92, 1.68 µM (inactive); in the experiment with IGROV-1 it was 0.158 µM (active); with LOX IMVI, 0.136 µM (active). In addition, the GI50 in the experiment on M14 is 0.998 µM (active); in the experiment with MDA-MB-231, 0.322 µM (active); in the experiment on NCI-H226, 0.082 µM (active); in the experiment on NCI-H23 it was 0.412 µM (active); with NCI-H460, 0.0782 µM (active); with NCI-H522, 0.0524 µM (active). In addition, the GI50 with OVCAR-5 was 1.3 µM (inactive); in the experiment with OVCAR-8, 0.348 µM (active); with RXF 393, 0.256 µM (active); in the experiment with SF-268, 0.352 µM (active); with SNB-75, 1.71 µM (inactive); in the experiment with SW-620, 0.0418 µM (active). Moreover, the GI50 in the experiment on U-251 is 0.134 µM (active); in the experiment with UACC-257 it was 0.723 µM (active).
Turning to `O=c1[nH]cc(/C=N\Nc2ccccc2)c(=O)[nH]1`, the GI50 was > 100 µM (inactive) in the experiment on 786-0; > 100 µM (inactive) in the experiment with A498; 68.9 µM (inactive) with ACHN; > 100 µM (inactive) with HOP-92; > 100 µM (inactive) with IGROV-1; 6.14 µM (inactive) with LOX IMVI. The GI50 is > 100 µM (inactive) with M14; > 100 µM (inactive) with MDA-MB-231; > 100 µM (inactive) with NCI-H226; > 100 µM (inactive) with NCI-H23; 47.8 µM (inactive) in the experiment on NCI-H460; > 100 µM (inactive) with NCI-H522. Moreover, the GI50 in the experiment with OVCAR-5, in the experiment with OVCAR-8, in the experiment with RXF 393, in the experiment with SF-268, in the experiment on SNB-75 and with SW-620 was > 100 µM (inactive) throughout. Also, the GI50 in the experiment with U-251 and with UACC-257 was > 100 µM (inactive) in each case.
As to `CC(Br)C(=O)NC(CO)C(=O)O` (stereo not given), the GI50 with 786-0, in the experiment on A498, in the experiment with ACHN, in the experiment with HOP-92, in the experiment on IGROV-1 and in the experiment with LOX IMVI was > 100 µM (inactive) throughout. The GI50 with M14, in the experiment with MDA-MB-231, in the experiment on NCI-H226, in the experiment on NCI-H23, in the experiment with NCI-H460 and with NCI-H522 was > 100 µM (inactive) each time. In addition, the GI50 in the experiment with OVCAR-5, in the experiment on OVCAR-8, in the experiment on RXF 393, in the experiment with SF-268, in the experiment on SNB-75 and in the experiment on SW-620 was > 100 µM (inactive) throughout. For the same compound, the GI50 in the experiment on U-251 and in the experiment on UACC-257 was > 100 µM (inactive) throughout.
As for `O=S1(=O)CCN(c2ccccc2CC(c2c[nH]c3ccccc23)c2c[nH]c3ccccc23)CC1`, the GI50 in the experiment with 786-0 is 6.03 µM (inactive); in the experiment on A498 it was 10 µM (inactive); in the experiment with ACHN, 5.04 µM (inactive); with HOP-92, 5.37 µM (inactive); in the experiment with IGROV-1 it was 6.93 µM (inactive); in the experiment on LOX IMVI it was 3.57 µM (inactive). Further, the GI50 in the experiment on M14 was 4.35 µM (inactive); with MDA-MB-231 it was 6.92 µM (inactive); with NCI-H226, 12.7 µM (inactive); in the experiment on NCI-H23, 6.67 µM (inactive); with NCI-H460, 2.67 µM (inactive); in the experiment on NCI-H522, 4.49 µM (inactive). Besides, the GI50 in the experiment with OVCAR-5 is 14.1 µM (inactive); in the experiment with OVCAR-8, 8.55 µM (inactive); in the experiment with RXF 393, 7.03 µM (inactive); in the experiment on SF-268, 5.19 µM (inactive); in the experiment with SNB-75 it was 5.02 µM (inactive); in the experiment on SW-620, 3.92 µM (inactive). Moreover, the GI50 with U-251 is 7.87 µM (inactive); with UACC-257 it was 5.15 µM (inactive).
As to `COc1c(C(=O)CC2c3c(cc4oc(C)cc(=O)c4c3OC)OC(=N)C2c2nc3ccccc3[nH]2)c(O)c(OC)c2occc12` (stereo not given), the GI50 in the experiment with 786-0, in the experiment with A498, in the experiment on ACHN, with HOP-92, in the experiment with IGROV-1 and in the experiment on LOX IMVI was > 100 µM (inactive) throughout. Also, the GI50 in the experiment with M14, with MDA-MB-231, with NCI-H226, in the experiment with NCI-H23, with NCI-H460 and with NCI-H522 was > 100 µM (inactive) each time. Further, the GI50 in the experiment on OVCAR-5, with OVCAR-8, with RXF 393, with SF-268, in the experiment with SNB-75 and in the experiment on SW-620 was > 100 µM (inactive) each time. The GI50 with U-251 and in the experiment on UACC-257 was > 100 µM (inactive) each time.
On to `Nc1ccn(C2OC(COC(=O)C34CC5CC(CC(C5)C3)C4)C(O)C2O)c(=O)n1` (stereo not given), for which the GI50 is > 100 µM (inactive) in the experiment with 786-0; > 45.5 µM (inactive) in the experiment on A498; 1.77 µM (inactive) with ACHN; > 100 µM (inactive) with HOP-92; > 100 µM (inactive) in the experiment with IGROV-1; 7.01 µM (inactive) in the experiment on LOX IMVI. Moreover, the GI50 with M14 was 0.817 µM (active); in the experiment on MDA-MB-231, > 100 µM (inactive); in the experiment on NCI-H226, > 100 µM (inactive); in the experiment on NCI-H23, 12.2 µM (inactive); with NCI-H460, 0.392 µM (active); with NCI-H522, 10.7 µM (inactive). Further, the GI50 in the experiment with OVCAR-5 is > 100 µM (inactive); with OVCAR-8, 24.2 µM (inactive); in the experiment with RXF 393, > 100 µM (inactive); with SF-268, > 50.5 µM (inactive); in the experiment on SNB-75 it was > 100 µM (inactive); in the experiment on SW-620, > 100 µM (inactive). Further, the GI50 in the experiment with U-251 and in the experiment on UACC-257 was > 100 µM (inactive) throughout.
In the case of `CCn1c(-c2ccc(C)cc2)cs/c1=N\C(P(=O)(O)O)P(=O)(O)O`, the GI50 in the experiment with 786-0, in the experiment with A498, in the experiment on ACHN, in the experiment with HOP-92, in the experiment on IGROV-1 and in the experiment on LOX IMVI was > 100 µM (inactive) throughout. Moreover, the GI50 with M14, in the experiment on MDA-MB-231, with NCI-H226, in the experiment on NCI-H23, in the experiment on NCI-H460 and in the experiment on NCI-H522 was > 100 µM (inactive) each time. Moreover, the GI50 with OVCAR-5, with OVCAR-8, in the experiment on RXF 393, in the experiment with SF-268, in the experiment on SNB-75 and with SW-620 was > 100 µM (inactive) in each case. Also, the GI50 with U-251 and in the experiment on UACC-257 was > 100 µM (inactive) each time.
